Source: ChEMBL document CHEMBL4382216, “Asymmetric synthesis and biological evaluation of imidazole- and oxazole-containing synthetic lipoxin A4 mimetics (sLXms)” (Eur J Med Chem, 2019)

Legend:
Assay type in all cases: cell-based
[1] = target: T1, N-formyl peptide receptor 2 (Homo sapiens) (UniProt P25090); experiment: Agonist activity at ALX/FPR2 in human THP1 cells harboring NF-kB-Luc assessed as inhibition of LPS-induced NFkB signalling activation by measuring NF-kB activation level at 10^-7 M pretreated for 30 mins followed by LPS stimulation for 24 hrs by luciferase reporter gene assay; parameters: scale not given: the % may be the effect or the level left
T1 sequence (whole entry): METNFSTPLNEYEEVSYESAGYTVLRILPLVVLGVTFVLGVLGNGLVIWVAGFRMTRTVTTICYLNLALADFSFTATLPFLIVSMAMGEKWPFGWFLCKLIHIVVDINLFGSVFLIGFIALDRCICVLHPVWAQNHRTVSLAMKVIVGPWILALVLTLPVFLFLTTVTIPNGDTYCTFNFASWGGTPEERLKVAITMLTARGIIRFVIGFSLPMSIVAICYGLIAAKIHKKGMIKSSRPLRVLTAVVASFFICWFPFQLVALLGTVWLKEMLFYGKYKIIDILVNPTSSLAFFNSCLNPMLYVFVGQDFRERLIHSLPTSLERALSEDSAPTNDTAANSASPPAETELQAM

[2] = target: T1, N-formyl peptide receptor 2 (Homo sapiens); experiment: Agonist activity at ALX/FPR2 in human THP1 cells harboring NF-kB-Luc assessed as inhibition of LPS-induced NFkB signalling activation by measuring NF-kB activation level at 10^-11 M pretreated for 30 mins followed by LPS stimulation for 24 hrs by luciferase reporter gene assay; parameters: scale not given: the % may be the effect or the level left
[3] = target: T1, N-formyl peptide receptor 2 (Homo sapiens); experiment: Agonist activity at ALX/FPR2 in human THP1 cells harboring NF-kB-Luc assessed as inhibition of LPS-induced NFkB signalling activation by measuring IL-1beta secretion at 10^-11 M pretreated for 30 mins followed by LPS stimulation for 24 hrs by electrochemiluminescence assay; parameters: scale not given: the % may be the effect or the level left
[4] = target: T1, N-formyl peptide receptor 2 (Homo sapiens); experiment: Agonist activity at ALX/FPR2 in human THP1 cells harboring NF-kB-Luc assessed as inhibition of LPS-induced NFkB signalling activation by measuring IFNgamma secretion at 10^-7 M pretreated for 30 mins followed by LPS stimulation for 24 hrs by electrochemiluminescence assay; parameters: scale not given: the % may be the effect or the level left
[5] = target: T1, N-formyl peptide receptor 2 (Homo sapiens); experiment: Agonist activity at ALX/FPR2 in human THP1 cells harboring NF-kB-Luc assessed as inhibition of LPS-induced NFkB signalling activation by measuring NF-kB activation level at 10^-6 M pretreated for 30 mins followed by LPS stimulation for 24 hrs by luciferase reporter gene assay; parameters: scale not given: the % may be the effect or the level left
[6] = target: T2, N-formyl peptide receptor 2 (Homo sapiens, UniProt P25090); experiment: Agonist activity at ALX/FPR2 in human THP1 cells harboring NF-kB-Luc assessed as inhibition of LPS-induced NFkB signalling activation by measuring reduction in TNFalpha secretion pretreated for 30 mins followed by LPS stimulation for 24 hrs by electrochemiluminescence assay; conditions: read-out: IC50
T2 sequence (P25090 whole entry): T1 sequence (whole entry)

[7] = target: T1, N-formyl peptide receptor 2 (Homo sapiens); experiment: Agonist activity at ALX/FPR2 in human THP1 cells harboring NF-kB-Luc assessed as inhibition of LPS-induced NFkB signalling activation by measuring TNFalpha secretion at 10^-9 M pretreated for 30 mins followed by LPS stimulation for 24 hrs by electrochemiluminescence assay; parameters: scale not given: the % may be the effect or the level left
Homo sapiens = species on record: Homo sapiens; experiment: Activation of Luc-fused NFkB (unknown origin) expressed in non-stimulated human THP1 cells assessed as relative luminescence unit at 10^-9 M after 24 hrs by luciferase reporter gene assay (reference value: 100%)
[8] = target: T2, N-formyl peptide receptor 2; experiment: Agonist activity at ALX/FPR2 in human THP1 cells harboring NF-kB-Luc assessed as inhibition of LPS-induced NFkB signalling activation by measuring reduction in IL-1beta secretion pretreated for 30 mins followed by LPS stimulation for 24 hrs by electrochemiluminescence assay; conditions: read-out: IC50
[9] = target: T1, N-formyl peptide receptor 2 (Homo sapiens); experiment: Agonist activity at ALX/FPR2 in human THP1 cells harboring NF-kB-Luc assessed as inhibition of LPS-induced NFkB signalling activation by measuring TNFalpha secretion at 10^-11 M pretreated for 30 mins followed by LPS stimulation for 24 hrs by electrochemiluminescence assay; parameters: scale not given: the % may be the effect or the level left
[10] = target: T1, N-formyl peptide receptor 2 (Homo sapiens); experiment: Agonist activity at ALX/FPR2 in human THP1 cells harboring NF-kB-Luc assessed as inhibition of LPS-induced NFkB signalling activation by measuring TNFalpha secretion at 10^-7 M pretreated for 30 mins followed by LPS stimulation for 24 hrs by electrochemiluminescence assay; parameters: scale not given: the % may be the effect or the level left
[11] = Cytotoxicity against mouse J774.1 cells assessed as cell viability by MTS assay relative to control; conditions: read-out: Activity
[12] = target: T1, N-formyl peptide receptor 2 (Homo sapiens); experiment: Agonist activity at ALX/FPR2 in human THP1 cells harboring NF-kB-Luc assessed as inhibition of LPS-induced NFkB signalling activation by measuring IFNgamma secretion at 10^-11 M pretreated for 30 mins followed by LPS stimulation for 24 hrs by electrochemiluminescence assay; parameters: scale not given: the % may be the effect or the level left
[13] = target: T1, N-formyl peptide receptor 2 (Homo sapiens); experiment: Agonist activity at ALX/FPR2 in human THP1 cells harboring NF-kB-Luc assessed as inhibition of LPS-induced NFkB signalling activation by measuring NF-kB activation level at 10^-8 M pretreated for 30 mins followed by LPS stimulation for 24 hrs by luciferase reporter gene assay; parameters: scale not given: the % may be the effect or the level left
[14] = target: T1, N-formyl peptide receptor 2 (Homo sapiens); experiment: Agonist activity at ALX/FPR2 in human THP1 cells harboring NF-kB-Luc assessed as inhibition of LPS-induced NFkB signalling activation by measuring IL-6 secretion at 10^-7 M pretreated for 30 mins followed by LPS stimulation for 24 hrs by electrochemiluminescence assay; parameters: scale not given: the % may be the effect or the level left
[15] = target: T2, N-formyl peptide receptor 2; experiment: Agonist activity at ALX/FPR2 in human THP1 cells harboring NF-kB-Luc assessed as inhibition of LPS-induced NFkB signalling activation by measuring reduction in IFNgamma secretion pretreated for 30 mins followed by LPS stimulation for 24 hrs by electrochemiluminescence assay; conditions: read-out: IC50
[16] = target: T2, N-formyl peptide receptor 2; experiment: Agonist activity at ALX/FPR2 in human THP1 cells harboring NF-kB-Luc assessed as inhibition of LPS-induced NFkB signalling activation pretreated for 30 mins followed by LPS stimulation for 24 hrs by luciferase reporter gene assay
[17] = target: T1, N-formyl peptide receptor 2 (Homo sapiens); experiment: Agonist activity at ALX/FPR2 in human THP1 cells harboring NF-kB-Luc assessed as inhibition of LPS-induced NFkB signalling activation by measuring IL-6 secretion at 10^-9 M pretreated for 30 mins followed by LPS stimulation for 24 hrs by electrochemiluminescence assay; parameters: scale not given: the % may be the effect or the level left
[18] = target: T1, N-formyl peptide receptor 2 (Homo sapiens); experiment: Agonist activity at ALX/FPR2 in human THP1 cells harboring NF-kB-Luc assessed as inhibition of LPS-induced NFkB signalling activation by measuring IL-1beta secretion at 10^-9 M pretreated for 30 mins followed by LPS stimulation for 24 hrs by electrochemiluminescence assay; parameters: scale not given: the % may be the effect or the level left
[19] = target: T1, N-formyl peptide receptor 2 (Homo sapiens); experiment: Agonist activity at ALX/FPR2 in human THP1 cells harboring NF-kB-Luc assessed as inhibition of LPS-induced NFkB signalling activation by measuring IL-6 secretion at 10^-11 M pretreated for 30 mins followed by LPS stimulation for 24 hrs by electrochemiluminescence assay; parameters: scale not given: the % may be the effect or the level left
[20] = target: T1, N-formyl peptide receptor 2 (Homo sapiens); experiment: Agonist activity at ALX/FPR2 in human THP1 cells harboring NF-kB-Luc assessed as inhibition of LPS-induced NFkB signalling activation by measuring NF-kB activation level at 10^-10 M pretreated for 30 mins followed by LPS stimulation for 24 hrs by luciferase reporter gene assay; parameters: scale not given: the % may be the effect or the level left

Row | Activity [1] [%] | Activity [2] [%] | Activity [3] [%] | Activity [4] [%] | Activity [5] [%] | IC50 [6] [nM] | Activity [7] [%] | IC50 [8] [nM] | Activity [9] [%] | Activity [10] [%] | Activity [12] [%] | Activity [13] [%] | Activity [14] [%] | IC50 [15] [nM] | IC50 [16] [nM] | Activity [17] [%] | Activity [18] [%] | Activity [19] [%] | SMILES | Activity (Homo sapiens) [%] | viability [11] [%] | other results
1 | 76 | 95.5 | 6.6 | 32 | 93.3 | 7.7 | 16.9 | 1.8 | 19.6 | 29.5 | 30.3 | 83.3 | 1.7 | 22.2 | 26.3 | 1.1 | 4.3 | 2.6 | CCCCC[C@H](O)/C=C/C=C\C=C\C=C\[C@@H](O)[C@@H](O)CCCC(=O)O [LIPOXIN A4] | 1.5 | 95 to 100 | Activity [20]: 85.6%
2 | 88.2 | 94.3 | 49.6 | 95 | 88.5 | 7.1 | 68.6 | 1.4 | 61.5 | 78.1 | 79.1 | 84.4 | 83.7 | 18.5 | 26.2 | 64.4 | 50.3 | 58.7 | CCCCC[C@@H](O)c1nc(-c2ccccc2)n(-c2ccccc2)c1/C=C/[C@@H](O)[C@@H](O)CCCC(=O)OC | 1.5 | 95 to 100 | Activity [20]: 91.2%
3 | 82.2 | 83.4 | 50.3 | 129 | 90.2 | 4.1 | 80.9 | 1 | 69.3 | 86.8 | 69.1 | 80.4 | 64.9 | 0.7 | 32.4 | 77.3 | 57.8 | 69 | CCCCC[C@H](O)c1nc(-c2ccccc2)n(-c2ccccc2)c1/C=C/[C@@H](O)[C@@H](O)CCCC(=O)OC | 1.6 | 95 to 100 | Activity [20]: 79.7%
